Laboratory results from ChEMBL document CHEMBL2092589, “Liver-stage malaria parasites vulnerable to diverse chemical scaffolds” (Proc Natl Acad Sci U S A, 2012).
pIC50: −log10 of the molar value. Counter-ions that a name gives are not always drawn.

Legend:
Plasmodium falciparum [1] = experiment: HARVARD: Inhibition of blood stage Plasmodium falciparum Dd2 infection; assay type: functional, organism-based
Plasmodium falciparum [2] = experiment: HARVARD: Inhibition of blood stage Plasmodium falciparum 3D7 infection; assay type: functional, organism-based
Plasmodium berghei = experiment: HARVARD: Inhibition of liver stage Plasmodium berghei infection in HepG2 cells; assay type: functional, organism-based, ANKA
[3] = (§1) HARVARD: Cytotoxicity in HepG2 cell line; conditions: human
HepG2 = experiment: as §1; conditions: human, HepG2 cells
[4] = Plasmodium berghei, ANKA, HepG2

Row | Molecule | pIC50 (Plasmodium falciparum [1]; Plasmodium falciparum, Dd2) | pIC50 (Plasmodium berghei; [4]) | pIC50 ([3]; HepG2 cells) | also measured
1 | CC(=O)[C@]1(O)Cc2c(O)c3c(c(O)c2[C@@H](O[C@H]2C[C@H](N)[C@H](O)[C@H](C)O2)C1)C(=O)c1ccccc1C3=O [IDARUBICIN] | < 5.30 | 5.18 | 4.91 | pIC50 (Plasmodium falciparum [2]; Plasmodium falciparum, 3D7): < 5.30
2 | CC[C@@H]1C=CC=CC[C@H](C)[C@@H](O)[C@@H](C)C(=O)[C@H](C)[C@@H](O)[C@H](C)C(=O)[C@H](C)[C@@H](O)[C@H](C)C=CC(=O)O[C@H]2[C@@H](C)[C@@H](CC1)O[C@@]1(CC[C@@H](C)[C@@H](C[C@H](C)O)O1)[C@@H]2C [OLIGOMYCIN C] | 6.95 | 9.30 | 4.82 | –
3 | COc1ccc(CCN2CCC(Nc3nc4ccccc4n3Cc3ccc(F)cc3)CC2)cc1 [ASTEMIZOLE] | – | – | 4.92 | –
4 | CC[C@@]1([C@H]2O[C@H]([C@H]3O[C@@](O)(CO)[C@H](C)C[C@@H]3C)C[C@H]2C)CC[C@H]([C@@]2(C)CC[C@]3(C[C@H](O)[C@@H](C)[C@@H]([C@H](C)[C@H](OC)[C@@H](C)C(=O)O)O3)O2)O1 [MONENSIN SODIUM] | – | 9.22 | – | –
5 | COc1c(C)c2c(c(O)c1C/C=C(\C)CCC(=O)O)C(=O)OC2 [MYCOPHENOLIC ACID] | < 5.30 | 6.00 | < 4.00 | –
6 | COc1cccc2c1C(=O)c1c(O)c3c(c(O)c1C2=O)C[C@@](O)(C(=O)CO)C[C@@H]3O[C@H]1C[C@H](N)[C@H](O)[C@H](C)O1 [DOXORUBICIN] | 7.24 | 6.05 | 4.95 | –
7 | O=C(c1ccc(F)cc1)C1CCN(CCn2c(=O)[nH]c3ccccc3c2=O)CC1 [KETANSERIN TARTRATE] | < 5.30 | 5.87 | < 4.00 | –
8 | Cc1cc(C2CCCCC2)n(O)c(=O)c1 [CICLOPIROX OLAMINE] | – | 5.98 | < 4.00 | –
9 | CCc1nc(N)nc(N)c1-c1ccc(Cl)cc1 [PYRIMETHAMINE] | – | 8.33 | < 5.00 | –
10 | CN1CCC[C@@H]1CCO[C@](C)(c1ccccc1)c1ccc(Cl)cc1 [CLEMASTINE FUMARATE] | 6.34 | 6.02 | – | pIC50 (Plasmodium falciparum [2]; Plasmodium falciparum, 3D7): 6.18; pIC50 ([3]; hepg2): < 4.30
11 | COc1ccc2nc([S@@+]([O-])Cc3ncc(C)c(OC)c3C)[nH]c2c1 [ESOMEPRAZOLE POTASSIUM] | < 4.30 | 6.54 | < 5.00 | pIC50 (Plasmodium falciparum [2]; Plasmodium falciparum, 3D7): < 4.30
12 | CCCCCCCCCCOc1cc2c(O)c(C(=O)OCC)cnc2cc1OCC [DECOQUINATE] | – | 8.27 | < 4.00 | –
13 | CCCCCCCCCc1ccc(OCCOCCOCCOCCOCCOCCOCCOCCOCCO)cc1 [NONOXYNOL 9] | < 5.30 | 5.64 | 4.21 | –
14 | C[C@@H]1C[C@@H]([C@H](O)CC2CC(=O)NC(=O)C2)C(=O)[C@@H](C)C1 [CYCLOHEXIMIDE] | – | 7.33 | < 4.00 | –
15 | COc1cc(NC(C)CCCN)c2ncccc2c1 (stereo not given) [PRIMAQUINE PHOSPHATE] | 6.10 | 5.13 | < 4.00 | –
16 | Nc1nc(Nc2ccc(S(N)(=O)=O)cc2)nn1C(=S)Nc1c(F)cccc1F | 6.59 | 6.33 | < 4.30 | –
17 | Cc1cc(N)c2ccccc2[n+]1CCCCCCCCCC[n+]1c(C)cc(N)c2ccccc21 [DEQUALINIUM CHLORIDE] | 6.87 | 5.77 | < 4.00 | –
18 | AURANOFIN | – | – | – | pIC50 (Plasmodium falciparum [1]): 6.50; pIC50 (Plasmodium falciparum [2]): 6.46; pIC50 (Plasmodium berghei; hepg2): 6.97; pIC50 (HepG2): 5.25
